Measured values: patent EP4818191A1, “PEPTIDE AND CONJUGATE CONTAINING SAID PEPTIDE” (PeptiDream Inc., priority 2023, dated 2025)

Molecular target: T1, human CA9 (Homo sapiens, UniProt Q16790)
T1 construct: purchased SinoBiological
Assay: Intermolecular interaction against human CA9 by surface plasmon resonance (SPR)
Type: binding
Conditions: Human CA9-Fc captured on Protein A sensor chip, Single Cycle Kinetics, KD values only in Tables 7, 8 (images)
Method: The intermolecular interactions of the peptides against human CA9 protein were examined by surface plasmon resonance (SPR) for the various peptides or conjugates synthesized in Examples 1 and 2, according to the methods described below. Specific test methods are described below.
Protein A sensor chip (Cytiva) was inserted into BiacoreT200 (Cytiva) and primed with running buffer: 1× HBS-P+ (Cytiva), 1.0 % DMSO (Fujifilm Wako Pure Chemical Corporation), and 50 µM zinc acetate dihydrate (Hampton research), and equilibrated at a flow rate of 30 µL/min. 50 nM Human CA9-Fc (SinoBiological) diluted with running buffer was reacted at a flow rate of 5 µL/min for 60 seconds and captured into a flow cell.
A solution containing each peptide or conjugate synthesized in Example 1 or 2 and prepared at 1 mM in DMSO solution was diluted with running buffer to a final concentration of 100 nM. Then, the peptide or conjugate solutions at 25 nM and 5 nM were further prepared. Depending on the affinity of the peptide or conjugate, the solution was diluted with running buffer to a final concentration of 40 nM. […]
Using the above samples, the kinetics of each peptide or conjugate against human CA9 was obtained by SPR measurement. […] The binding of each peptide or conjugate to human CA9 was evaluated by performing least-squares curve fitting on the obtained sensorgram to calculate the KD value.

activity of binding to human CA9 (CA9 binding ability): possesses CA9 binding ability
Substance: C1Ac-da-Tbg-3Py6CON-Hgl-Meda-Ahp-PeG-S-3Py6NH2-HseMe-dk-Y-MeC [SEQ ID No. 45]
